Test results: US10934274B2, “Quinoline derivatives as TAM RTK inhibitors” (Qurient Co., Ltd., priority 2015, dated 2021)

Assays:
TYRO3 = target: T1, TYRO3 (Homo sapiens, UniProt Q06418); assay: LanthaScreen Eu kinase binding assay, TYRO3; settings: Tracer 236
T1 construct: purchased Life Technologies
T1 sequence (Q06418 41-890): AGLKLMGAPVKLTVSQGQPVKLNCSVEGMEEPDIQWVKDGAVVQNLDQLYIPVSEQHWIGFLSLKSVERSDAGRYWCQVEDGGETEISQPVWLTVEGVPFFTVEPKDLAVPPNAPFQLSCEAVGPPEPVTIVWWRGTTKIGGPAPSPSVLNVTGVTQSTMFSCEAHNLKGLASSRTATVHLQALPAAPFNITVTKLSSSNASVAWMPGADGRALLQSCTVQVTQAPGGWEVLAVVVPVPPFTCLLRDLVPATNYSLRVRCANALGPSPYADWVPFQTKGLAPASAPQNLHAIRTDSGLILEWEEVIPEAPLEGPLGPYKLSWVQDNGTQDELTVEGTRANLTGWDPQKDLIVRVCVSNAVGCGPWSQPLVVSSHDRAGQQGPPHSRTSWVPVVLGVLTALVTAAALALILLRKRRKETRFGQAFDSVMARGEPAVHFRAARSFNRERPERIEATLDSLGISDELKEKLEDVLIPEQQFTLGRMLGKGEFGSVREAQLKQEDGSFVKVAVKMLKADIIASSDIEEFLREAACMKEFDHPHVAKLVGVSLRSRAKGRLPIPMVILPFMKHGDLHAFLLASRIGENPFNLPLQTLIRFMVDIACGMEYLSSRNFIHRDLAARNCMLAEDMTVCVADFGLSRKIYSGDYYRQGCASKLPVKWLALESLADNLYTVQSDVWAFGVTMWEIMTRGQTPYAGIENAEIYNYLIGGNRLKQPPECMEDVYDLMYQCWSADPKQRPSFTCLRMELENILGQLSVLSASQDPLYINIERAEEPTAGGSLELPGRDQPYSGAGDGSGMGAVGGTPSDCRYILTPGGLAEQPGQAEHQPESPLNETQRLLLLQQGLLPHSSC

[1] = test system: Axl phosphorylation in transiently transfected HEK293T cells; assay: Cellular Axl phosphorylation assay; format: cell-based; settings: Homo sapiens, HEK-293T; HEK293T cells transfected with Axl, 1 hour compound treatment, Phospho-Axl vs Total-Axl
Source text: Cell AXL Inhibition Assay Principle
The assay is based on the measurement of the relative amounts of Total-Axl and Phosphorylated-Axl in whole cell lysates of transiently transfected HEK293T cells. This assay is based on application of the Mesoscale western blot and subsequent electro-chemiluminescence detection. Overexpression of Axl-RTK (Receptor tyrosine kinase) by transfection leads to an increase in Axl-trans-autophosphorylation events. Upon compound treatment, the correlation of the measured values of Phosphorylated-Axl and Total Axl indicate the potential of the tested compound to inhibit Axl-phosphorylation at the given compound concentration.
Cell AXL Inhibition Assay Protocol
HEK293T cells (2.5×10^4/well) were plated in a 96 well plate and cells were transfected with pcDNA_DEST_40 Axl or pcDNA_DEST_40 by Superfact reagent (Qiagen. Co. Ltd.). After overnight, the transfection reagent of each well was removed from cells and replaced by fresh prewarmed medium. On the following day, cells were treated with the respective test compound which was diluted by the same method, as in the Axl binding assay using DMSO, for 1 hour
After incubation with the test compounds, cells in the well of the plate were lysed using Tris lysis buffer. The lysate was transferred to two plates (total-Axl and phosphor-Axl) Mesoscale high bind plates and incubated for two hours at room temperature. Afterwards the lysates were removed from the plates and the plates were blocked using Blocking buffer. Subsequently Total-Axl antibody (H-124, Santa Cruz) was transferred to one Mesoscale high bind plate, and Phospho-Axl antibody (AF2228, R&D) to the other plate. After 1 h incubation, Sulpho-Tag antibody (goat anti-rabbit, Mesoscale) was added and again incubated for 1 hour. For the measurement, 2×MSD read buffer was added to each well and the plates were analyzed with a Mesoscale Sector Imager 2400. IC50 (half the maximal inhibitory concentration) was determined relative to between the vehicle (DMSO) control group and minimum control group as transfection of the control vector (pcDNA_DEST_40).
The results after this assay are shown in table 3 for selected compounds.

Compound | Kd (TYRO3) | IC50 [1]
CCOc1cn(-c2ccc(C(C)C)cc2)nc1C(=O)Nc1ccc(Oc2ccnc3cc(OC)c(OC)cc23)cn1 [Compound 116] | ≥ 1 µM | < 0.1 µM
CCOc1cn(-c2ccc(C(F)(F)F)cc2C)nc1C(=O)Nc1ccc(Oc2ccnc3cc(OC)c(OC)cc23)cn1 [Compound 99] | 0.1 to 1 µM | < 0.1 µM
CCOc1cn(-c2ccc(Cl)c(C(=O)N(C)C)c2)nc1C(=O)Nc1ccc(Oc2ccnc3cc(OC)c(OC)cc23)cn1 [Compound 129] | ≥ 1 µM | < 0.1 µM
COc1cc2nccc(Oc3ccc(NC(=O)c4nn(-c5ccc(OC(F)(F)F)cc5Cl)cc4OCC(F)(F)F)nc3)c2cc1OC [Compound 186] | 0.1 to 1 µM | < 0.1 µM
CCOc1cn(-c2nccnc2C(F)(F)F)nc1C(=O)Nc1ccc(Oc2ccnc3cc(OC)c(OC)cc23)cn1 [Compound 162] | 0.1 to 1 µM | < 0.1 µM
CCOc1cn(-c2cnc(CO)nc2)nc1C(=O)Nc1ccc(Oc2ccnc3cc(OC)c(OC)cc23)cn1 [Compound 96] | ≥ 1 µM | < 0.1 µM
CCOc1cn(-c2cncn2C)nc1C(=O)Nc1ccc(Oc2ccnc3cc(OC)c(OC)cc23)cn1 [Compound 11] | 0.1 to 1 µM | < 0.1 µM
CCOc1cn(-c2ccc(Cl)c(CN(C)C)c2)nc1C(=O)Nc1ccc(Oc2ccnc3cc(OC)c(OC)cc23)cn1 [Compound 126] | ≥ 1 µM | < 0.1 µM
CCOc1cn(-c2ccc(OC(F)(F)F)cc2Cl)nc1C(=O)Nc1ccc(Oc2ccnc3cc(OC)c(OC)cc23)cn1 [Compound 115] | ≥ 1 µM | < 0.1 µM
CCOc1cn(-c2ccc(OC(F)(F)F)cc2Cl)nc1C(=O)Nc1ccc(Oc2ccnc3cc(OC)c(OC)cc23)cc1F [Compound 192] | 0.1 to 1 µM | < 0.1 µM
CCOc1cnn(-c2ccc(C(F)(F)F)cc2C(F)(F)F)c1C(=O)Nc1ccc(Oc2ccnc3cc(OC)c(OC)cc23)cn1 [Compound 110] | 0.1 to 1 µM | < 0.1 µM
CCOc1cn(-c2cnccc2C)nc1C(=O)Nc1ccc(Oc2ccnc3cc(OC)c(OC)cc23)nn1 [Compound 210] | 0.1 to 1 µM | < 0.1 µM
CCOc1cn(-c2ccc(C)cc2F)nc1C(=O)Nc1ccc(Oc2ccnc3cc(OC)c(OC)cc23)cn1 [Compound 100] | 0.1 to 1 µM | < 0.1 µM
CCOc1cn(-c2c(C)ccnc2C)nc1C(=O)Nc1ccc(Oc2ccnc3cc(OC)c(OC)cc23)c(F)c1 [Compound 188] | < 0.1 µM | < 0.1 µM
CCOc1cn(-c2ccc(F)cc2C(C)C)nc1C(=O)Nc1ccc(Oc2ccnc3cc(OC)c(OC)cc23)cn1 [Compound 125] | < 0.1 µM | < 0.1 µM
CCOc1cn(-c2ccc(Cl)cc2C(F)(F)F)nc1C(=O)Nc1ccc(Oc2ccnc3cc(OC)c(OC)cc23)cn1 [Compound 101] | 0.1 to 1 µM | < 0.1 µM
CCOc1cn(-c2cn[nH]c2)nc1C(=O)Nc1ccc(Oc2ccnc3cc(OC)c(OC)cc23)cn1 [Compound 8] | 0.1 to 1 µM | < 0.1 µM
CCOc1cn(-c2cnc(Cl)cn2)nc1C(=O)Nc1ccc(Oc2ccnc3cc(OC)c(OC)cc23)cn1 [Compound 169] | ≥ 1 µM | < 0.1 µM
COc1cc2nccc(Oc3ccc(NC(=O)c4nn(-c5ccc(F)cc5C)cc4OCC(F)(F)F)nc3)c2cc1OC [Compound 203] | < 0.1 µM | < 0.1 µM
CCOc1cn(-c2ccc(OC(F)(F)F)cc2F)nc1C(=O)Nc1ccc(Oc2ccnc3cc(OC)c(OC)cc23)cn1 [Compound 120] | ≥ 1 µM | < 0.1 µM
CCOc1cn(C2CCCN(C)C2)nc1C(=O)Nc1ccc(Oc2ccnc3cc(OC)c(OC)cc23)cc1F (stereo not drawn) [Compound 211] | 0.1 to 1 µM | < 0.1 µM

Second part, led by results:

Kd (TYRO3) | Compound | IC50 [1]
< 0.1 µM | CCOc1cn(-c2cncnc2C)nc1C(=O)Nc1ccc(Oc2ccnc3cc(OC)c(OC)cc23)cn1 [Compound 149] | < 0.1 µM
< 0.1 µM | COc1cc2nccc(Oc3ccc(NC(=O)c4nn(-c5cccnc5)cc4OCC(F)(F)F)nc3)c2cc1OC [Compound 185] | < 0.1 µM
< 0.1 µM | CCOc1cn(-c2cnccc2CO)nc1C(=O)Nc1ccc(Oc2ccnc3cc(OC)c(OC)cc23)cc1F [Compound 209] | < 0.1 µM
< 0.1 µM | CCOc1cn(-c2ccc(Cl)cc2Cl)nc1C(=O)Nc1ccc(Oc2ccnc3cc(OC)c(OC)cc23)cn1 [Compound 108] | < 0.1 µM
< 0.1 µM | CCOc1cn(-c2cnccc2C(C)(C)O)nc1C(=O)Nc1ccc(Oc2ccnc3cc(OC)c(OC)cc23)c(F)c1 [Compound 195] | < 0.1 µM
< 0.1 µM | CCOc1cn(-c2cnccc2C(C)(C)O)nc1C(=O)Nc1ccc(Oc2ccnc3cc(OC)c(OC)cc23)cc1F [Compound 197] | < 0.1 µM
< 0.1 µM | CCOc1cn(-c2ccc(F)cc2CC)nc1C(=O)Nc1ccc(Oc2ccnc3cc(OC)c(OC)cc23)cn1 [Compound 112] | < 0.1 µM
< 0.1 µM | CCOc1cn(-c2cnccc2Cl)nc1C(=O)Nc1ccc(Oc2ccnc3cc(OC)c(OC)cc23)cc1F [Compound 194] | < 0.1 µM
< 0.1 µM | CCOc1cn(-c2cscn2)nc1C(=O)Nc1ccc(Oc2ccnc3cc(OC)c(OC)cc23)cn1 [Compound 13] | < 0.1 µM
< 0.1 µM | CCOc1cn(-c2nccnc2Cl)nc1C(=O)Nc1ccc(Oc2ccnc3cc(OC)c(OC)cc23)cc1F [Compound 190] | < 0.1 µM
< 0.1 µM | CCOc1cn(-c2cnccc2C(F)(F)F)nc1C(=O)Nc1ccc(Oc2ccnc3cc(OC)c(OC)cc23)cc1F [Compound 196] | < 0.1 µM
< 0.1 µM | CCOc1cn(-c2cnccc2Cl)nc1C(=O)Nc1ccc(Oc2ccnc3cc(OC)c(OC)cc23)c(F)c1 [Compound 193] | < 0.1 µM
< 0.1 µM | CCOc1cn(-c2ccc(F)cc2C(F)(F)F)nc1C(=O)Nc1ccc(Oc2ccnc3cc(OC)c(OC)cc23)cn1 [Compound 104] | < 0.1 µM
< 0.1 µM | CCOc1cn(-c2c(C)ccnc2C)nc1C(=O)Nc1ccc(Oc2ccnc3cc(OC)c(OC)cc23)cc1F [Compound 191] | < 0.1 µM
< 0.1 µM | CCOc1cn(-c2cnccc2CO)nc1C(=O)Nc1ccc(Oc2ccnc3cc(OC)c(OC)cc23)cn1 [Compound 179] | < 0.1 µM
